Experimental data: patent US20080108702A1, “Use of Acetyl-Leucine for Preparing a Drug for Treating Balance Disorders” (priority 2005, published 2008)

Legend:
[1] = test system: patients with an indication for acoustic neurinoma excision or for vestibular neurotomy; test: Symptoms (vertigo and vomiting) rated by patients on 10 cm visual analog scales (VAS); format: in vivo, human
Protocol: Sixty patients with an indication for acoustic neurinoma excision or for vestibular neurotomy were included and randomized. Patients were treated for 60 days either with Tanganil® (six injections of two 500 mg vials by IV route, with an interval of 12 hours between injections, the first taking place one hour after the surgery, followed by an oral treatment at a dose of two 500 mg tablets, one in the morning and one in the evening) or with a placebo. Subjective signs (vertigo and vomiting) were rated by patients on a 10 cm VAS from “absent” to “highly incapacitating”.

[2] = test system: patients with an indication for acoustic neurinoma excision or for vestibular neurotomy; test: Balance evaluated by static posturography; format: in vivo, human
Protocol: Sixty patients with an indication for acoustic neurinoma excision or for vestibular neurotomy were included and randomized. Patients were treated for 60 days either with Tanganil® (six injections of two 500 mg vials by IV route, with an interval of 12 hours between injections, the first taking place one hour after the surgery, followed by an oral treatment at a dose of two 500 mg tablets, one in the morning and one in the evening) or with a placebo. Static posturography (not performed at D8 if the subject could not remain standing) was carried out in a standing position under four conditions (eyes open or closed, with or without foam carpeting). With foam carpeting and/or eyes closed, patients are placed under conditions which minimize the role of visual and proprioceptive information. Shifts in a subject's center of gravity during a given time period are recorded in a statokinesigram. This plot makes it possible to study oscillation amplitudes and surface areas. “Anteroposterior” oscillations can be separated from “right-left” oscillations.

[3] = test system: guinea pig after unilateral labyrinthectomy; conditions: cited from earlier work
[4] = test system: cats having undergone vestibular neurotomy; conditions: oral route, 28 mg per kg per day; cats after vestibular neurotomy; cited from earlier work
vertigo symptomatology = conditions: clinical results reported by various authors; cited from earlier work
[5] = test system: patients with an indication for acoustic neurinoma excision or for vestibular neurotomy; test: Ability to maintain a standing position eight days following neurotomy (randomized, placebo-controlled); format: in vivo, human
Protocol: Sixty patients with an indication for acoustic neurinoma excision or for vestibular neurotomy were included and randomized. Patients were treated for 60 days either with Tanganil® (six injections of two 500 mg vials by IV route, with an interval of 12 hours between injections, the first taking place one hour after the surgery, followed by an oral treatment at a dose of two 500 mg tablets, one in the morning and one in the evening) or with a placebo.
Vestibular deficit was measured according to the methods described in Vertigo and the practitioner [Les vertiges et le praticien] by P. Tran Ba Huy and C. De Waele (Coll Pathologie Sciences Formation [in French], Ed. John Libbey Eurotext, Paris, 1996) and in Vertigo [Les vertiges] by G. Rancurel, O. Sterkers, E. Vitte, foreword by G. Freyss (Ed. Méd. Spécia. [in French], 1989).
Vestibular reflex was tested at day zero (D0) before neurotomy by caloric testing to objectivize vestibular hyporeflexia or areflexia. This test consists of successively irrigating with warm water then cold the right external auditory meatus then the left, causing in the semicircular canal an endolymph current which moves the ampullary crest. Caloric response is expressed by the appearance of a nystagmus that beats toward the side of the stimulated ear when warm water is applied and toward the opposite side when cold water is applied. The nystagmic response was recorded by video nystagmography and its frequency calculated, i.e., the number of nystagmic beats occurring between the 60th and 90th seconds following the initiation of stimulation. This number quantifies the vestibular response.
The difference in responses between one ear and the other expresses so-called hypovalence, i.e., the difference between the warm and cold responses on the left side and the warm and cold responses on the right side, divided by the total number of responses. In normal subjects, hypovalence is less than 15%. Hypovalence is the main sign of damage to the peripheral vestibular apparatus.
The principle criterion was “able to maintain a standing position at D8” (Yes/No)

[6] = test system: surgical unilateral neurotomy model in the cat; test: Surgical unilateral neurotomy model (preliminary tests); format: in vivo
[7] = test system: mouse median vestibular neurons (MVN); test: Electrophysiological study in current clamp mode on median vestibular neurons; format: cell-based; conditions: for effect on action potentials of depolarized neurons: depolarized neurons (approximately −35 mV), after several minutes of application; for Membrane potential: hyperpolarized neurons (approximately −70 mV); for Action potential frequency / Action potential height / Depolarization threshold / Resting potential: neurons spontaneously active at the resting potential
Protocol: An electrophysiological study was conducted on mouse median vestibular neurons (MVN) in which the membrane potential was artificially maintained at various resting values. In this study, the effects of the D and L enantiomers of acetyl-leucine (1 mM) were tested on the membrane properties of neurons in “current clamp” mode at various membrane potential values: normal membrane potential (approximately −45 mV), potential maintained at a hyperpolarized level of approximately −70 mV or potential maintained at a depolarized level of approximately −35 mV.

## CC(=O)N[C@@H](CC(C)C)C(=O)O (racemic) [Tanganil®, acetyl-leucine]
[1]; D8, vestibular deficit less than or equal to 75%
  average change on the vertigo VAS: −23.5 mm
[1]; D8, vestibular deficit less than or equal to 75%, Wilcoxon test p=0.037
  difference vs placebo on vertigo VAS: statistically significant difference
[1]; vestibular deficit greater than 75%
  difference vs placebo on vomiting VAS: No significant difference
[1]; vestibular deficit greater than 75%, Wilcoxon test p=0.154
  difference vs placebo on vertigo VAS: no significant difference
[1]; vestibular deficit less than or equal to 75%, significant difference between the two groups
  effect on vomiting VAS vs placebo: reduction in vomiting severity
[2]; D8, vestibular deficit greater than 75%, eyes open or closed and/or with or without foam
  static posturography, difference vs placebo: either no significant difference was observed between Tanganil® and the placebo or a significant difference was observed between the two groups in favor of the placebo
[2]; D8, vestibular deficit less than or equal to 75%, with foam, eyes open, p=0.034 vs placebo
  right/left posturography (postural oscillations): +7.9 mm
[2]; D8, without foam, eyes open test
  right/left posturography, difference vs placebo: no significant difference
[2]; vestibular deficit less than or equal to 75%, regardless of experimental conditions
  static posturography, difference vs placebo: significant difference between treatment groups in favor of Tanganil®
[2]; vestibular deficit less than or equal to 75%, with foam, eyes closed, p=0.016 vs placebo
  right/left posturography (postural oscillations): +5.4 mm
[2]; vestibular deficit less than or equal to 75%, without foam, eyes closed, p=0.028 vs placebo
  right/left posturography (postural oscillations): +2.8 mm
[3]; after unilateral labyrinthectomy in the guinea pig
  effect on vestibular compensation: accelerate vestibular compensation
[3]; guinea pig
  effect on normal vestibular functioning: no effect
[4]
  effect on recovery of locomotor equilibrium: facilitates the recovery of locomotor equilibrium
Vertigo symptomatology
  cases with improvement in vertigo symptomatology, including the disappearance of vertigo attacks: more than 95%
[5]; 25 patients whose vestibular deficit was greater than 75%
  difference between the two treatment groups, able to maintain a standing position at D8: no significant difference
[5]; 31 patients whose vestibular deficit was less than or equal to 75%, χ^2=0.048
  difference between the two treatment groups, able to maintain a standing position at D8: statistically significant difference
[5]; patient population exhibiting no vestibular functioning before neurotomy
  effect on compensation after neurotomy: no effect
[5]; patients exhibiting residual vestibular functioning
  effect on compensation after neurotomy: accelerates the compensation
[5]; principle analysis of 49 patients
  difference between Tanganil and placebo, able to maintain a standing position at D8: no statistically significant difference
[5]; principle analysis of 49 patients, 13 of 22 patients given Tanganil, IV then oral treatment
  patients able to maintain a standing position at D8: 59.1%
[5]; subgroup with vestibular deficit less than or equal to 75%, 12 of 16 patients
  patients able to maintain a standing position at D8: 75%

## CC(=O)N[C@H](CC(C)C)C(=O)O [Acetyl-D-leucine]
[6]
  activity in surgical unilateral neurotomy model: active
[7]; 1 mM
  effect on action potentials of depolarized neurons: action potentials stop due to blocking of the membrane potential at a more depolarized level
[7]; before application (baseline)
  Membrane potential: −72.2 ± 5.2 mV
  Action potential frequency: 11.5 ± 6.8 Hz
  Action potential height: 59.0 ± 7.7 mV
  Depolarization threshold: −28.1 ± 4.5 mV
  Resting potential: −42.7 ± 3.6 mV
[7]; during application, 1 mM
  Membrane potential: −67.2 ± 4.6 mV
  Action potential frequency: 8.9 ± 7.7 Hz
  Action potential height: 50.7 ± 17.3 mV
  Depolarization threshold: −27.0 ± 10.2 mV
  Resting potential: −42.0 ± 3.6 mV
[7]; hyperpolarized neurons, 1 mM
  effect on the membrane potential of hyperpolarized neurons: significantly increases

## CC(=O)N[C@@H](CC(C)C)C(=O)O [Acetyl-L-leucine]
[6]
  activity in surgical unilateral neurotomy model: active
[7]; 1 mM
  effect on action potentials of depolarized neurons: not observed
[7]; before application (baseline)
  Membrane potential: −70.0 ± 2.1 mV
  Action potential frequency: 14.1 ± 9.0 Hz
  Action potential height: 59.0 ± 7.3 mV
  Depolarization threshold: −30.4 ± 5.6 mV
  Resting potential: −44.5 ± 2.1 mV
[7]; during application, 1 mM
  Membrane potential: −71.6 ± 3.2 mV
  Action potential frequency: 12.4 ± 7.8 Hz
  Action potential height: 49.8 ± 11.4 mV
  Depolarization threshold: −27.7 ± 8.4 mV
  Resting potential: −42.7 ± 3.7 mV
